According to patent US6465492B1, “Heterocyclic compounds” (Sinon Corporation, priority 2001, dated 2002):

Tested on: aphids
Assay: Biological test on aphid (spray on cabbage leaf in Petri dishes)
Format: in vivo
Details: for Number of dead aphids 1st: 1st Petri dish; for Number of dead aphids 1st / Number of dead aphids 2nd / Number of dead aphids 3rd / Number of dead aphids 4th: 20 aphids on cabbage leaf, 9.6% w/w pesticide reagent diluted 1000 times with water, sprayed, examined after 24 hours; for Number of dead aphids 2nd: 2nd Petri dish; for Number of dead aphids 3rd: 3rd Petri dish; for Number of dead aphids 4th: 4th Petri dish; for Number of dead aphids average: average of four Petri dishes
Experimental: 9.6 g of the compound (based on the active ingredient) obtained from Example 1 was blended with 90.4 g of a solvent to form a 9.6% w/w pesticide reagent An 8 cm×8 cm piece of cabbage leaf was placed on a lump of wetted cotton in each one of four Petri dishes. 20 aphids were subsequently put on the cabbage leaf in each one of the Petri dishes. The thus formed pesticide reagent was diluted 1000 times with water to form a diluted solution which was then sprayed onto the cabbage leaf in each one of the Petri dishes in a predetermined amount. The number of dead aphids in each one of the Petri dishes was examined after 24 hours.
Example 13 was repeated, except that the compound employed in Example 13 was replaced by the compound obtained from a respective one of the Examples 2 to 12.
Example 13 was repeated, except that the compound employed in Example 13 was replaced by imidachloprid which is a heterocyclic compound of the formula disclosed in U.S. Pat. No. 4,742,060.
Table 2 lists the effectiveness of the pesticide reagents prepared in Examples 13 to 24 and the Comparative Example 1.

[1] = 20 aphids each, 9.6% w/w reagent diluted 1000 times, after 24 hours

Structure (SMILES)	Number of dead aphids 1st	Number of dead aphids 2nd	Number of dead aphids 3rd	Number of dead aphids 4th	Number of dead aphids average [1]	Effectiveness (higher value indicates greater effectivity, four Petri dishes, 20 aphids each, 9.6% w/w reagent diluted 1000 times, after 24 hours)
O=[N+]([O-])/N=C1\NCCN1Cc1ccc(Cl)nc1 [Comparative Example 1, imidachloprid, reference compound]	18	17	18	16	17.25	86.08
Cc1ccc(S(=O)(=O)N=C2NCCN2Cc2ccc(Cl)nc2)cc1 [Example 13, 3-(2-chloro-5-pyridylmethyl)-2-[(4-methylphenyl)sulfonylimino]imidazolidine]	15	18	16	17	16.5	–
Cc1ccc(S(=O)(=O)N=C2NCCCN2Cc2ccc(Cl)nc2)cc1 [Example 14, 3-(2-chloro-5-pyridylmethyl)-2-[(4-methylphenyl)sulfonylimino]tetrahydropyrimidine]	16	17	17	16	16.5	–
CS(=O)(=O)/N=C1\NCCN1Cc1ccc(Cl)nc1 [Example 15, 3-(2-chloro-5-pyridylmethyl)-2-[methylsulfonylimino] imidazolidine]	16	18	19	19	18	–
CS(=O)(=O)N=C1NCCCN1Cc1ccc(Cl)nc1 [Example 16, 3-(2-chloro-5-pyridylmethyl)-2-[methylsulfonylimino]tetrahydropyrimidine]	17	17	19	19	18	–
O=S(=O)(N=C1NCCN1Cc1ccc(Cl)nc1)c1ccc(Cl)cc1 [Example 17, 3-(2-chloro-5-pyridylmethyl)-2-[(4-chlorophenyl)sulfonylimino]imidazolidine]	20	18	19	20	19.25	–
O=S(=O)(N=C1NCCCN1Cc1ccc(Cl)nc1)c1ccc(Cl)cc1 [Example 18, 3-(2-chloro-5-pyridylmethyl)-2-[(4-chlorophenyl)sulfonylimino]tetrahydropyrimidine]	19	19	19	17	18.5	–
Cc1ccc(S(=O)(=O)N=C2SCCN2Cc2ccc(Cl)nc2)cc1 [Example 19, 3-(2-chloro-5-pyridylmethyl)-2-[(4-methylphenyl)sulfonylimino]thiazolidine]	17	16	18	17	17	–
Cc1ccc(S(=O)(=O)N=C2OCCN2Cc2ccc(Cl)nc2)cc1 [Example 20, 3-(2-chloro-5-pyridylmethyl)-2-[(4-methylphenyl)sulfonylimino]oxazolidine]	17	16	18	15	16.5	–
CS(=O)(=O)/N=C1\SCCN1Cc1ccc(Cl)nc1 [Example 21, 3-(2-chloro-5-pyridylmethyl)-2-[methylsulfonylimino]thiazolidine]	16	18	19	18	17.75	–
CS(=O)(=O)/N=C1\OCCN1Cc1ccc(Cl)nc1 [Example 22, 3-(2-chloro-5-pyridylmethyl)-2-[methylsulfonylimino]oxazolidine]	18	16	19	17	17.5	–
O=S(=O)(N=C1SCCN1Cc1ccc(Cl)nc1)c1ccc(Cl)cc1 [Example 23, 3-(2-chloro-5-pyridylmethyl)-2-[(4-chlorophenyl)sulfonylimino]thiazolidine]	18	18	16	18	17.5	–
O=S(=O)(N=C1OCCN1Cc1ccc(Cl)nc1)c1ccc(Cl)cc1 [Example 24, 3-(2-chloro-5-pyridylmethyl)-2-[(4-chlorophenyl)sulfonylimino]oxazolidine]	15	18	19	19	17.75	–
